Laboratory results published in patent publication US10597388B2, “Pyridazinone herbicides” (FMC CORPORATION, priority 2014, dated 2020).

How the values were obtained:
Type in all cases: in vivo
[1] = tested on: barnyardgrass (Echinochloa crus-galli); experiment: Test C greenhouse herbicide test, pre- and postemergence
Description: (§1) Seeds of plant species selected from blackgrass (Alopecurus myosuroides), ryegrass, Italian (Italian ryegrass, Lolium multiflorum), wheat (winter wheat, Triticum aestivum), galium (catchweed bedstraw, Galium aparine), corn (Zea mays), large crabgrass, large (large crabgrass, Digitaria sanguinalis), foxtail, giant (giant foxtail, Setaria faberii), johnsongrass (Sorghum halepense), lambsquarters (Chenopodium album), morningglory (Ipomoea coccinea), nutsedge, yellow (yellow nutsedge, Cyperus esculentus), pigweed (Amaranthus retroflexus), ragweed (common ragweed, Ambrosia elatior), soybean (Glycine max), barnyardgrass (Echinochloa crus-galli), oilseed rape (Brassica napus), waterhemp (common waterhemp, Amaranthus rudis), and velvetleaf (Abutilon theophrasti) were planted into a blend of loam soil and sand and treated preemergence with test chemicals formulated in a non-phytotoxic solvent mixture which included a surfactant.
(§2) At the same time, plants selected from these crop and weed species and also chickweed (common chickweed, Stellaria media), kochia (Kochia scoparia), and oat, wild (wild oat, Avena fatua), were planted in pots containing Redi-Earth® planting medium (Scotts Company, 14111 Scottslawn Road, Marysville, Ohio 43041) comprising spaghnum peat moss, vermiculite, wetting agent and starter nutrients and treated with postemergence applications of test chemicals formulated in the same manner. Plants ranged in height from 2 to 18 cm (1- to 4-leaf stage) for postemergence treatments. Treated plants and controls were maintained in a greenhouse for 13 to 15 d, after which time all species were compared to controls and visually evaluated. Plant response ratings, summarized in Table C, are based on a scale of 0 to 100 where 0 is no effect and 100 is complete control. A dash (-) response means no test result.

[2] = tested on: blackgrass (Alopecurus myosuroides); experiment: as above
Description: as §1, §2

[3] = tested on: corn (Zea mays); experiment: as above
Description: as §1, §2

[4] = tested on: crabgrass, large (large crabgrass, Digitaria sanguinalis); experiment: as above
Description: as §1, §2

[5] = tested on: foxtail, giant (giant foxtail, Setaria faberii); experiment: as above
Description: as §1, §2

[6] = tested on: johnsongrass (Sorghum halepense); experiment: as above
Description: as §1, §2

[7] = tested on: lambsquarters (Chenopodium album); experiment: as above
Description: as §1, §2

[8] = tested on: morningglory (Ipomoea coccinea); experiment: as above
Description: as §1, §2

[9] = tested on: pigweed (Amaranthus retroflexus); experiment: as above
Description: as §1, §2

[10] = tested on: ragweed (common ragweed, Ambrosia elatior); experiment: as above
Description: as §1, §2

[11] = tested on: ryegrass, Italian (Italian ryegrass, Lolium multiflorum); experiment: as above
Description: as §1, §2

[12] = tested on: soybean (Glycine max); experiment: as above
Description: as §1, §2

[13] = tested on: waterhemp (common waterhemp, Amaranthus rudis); experiment: as above
Description: as §1, §2

[14] = tested on: wheat (winter wheat, Triticum aestivum); experiment: as above
Description: as §1, §2

[15] = tested on: kochia (Kochia scoparia); experiment: Test C greenhouse herbicide test, postemergence
Procedure, shortened: (§3)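 Visual injury scores (0–100, where 100 means complete control) were assigned 13 to 15 d after postemergence application, by comparison with untreated plants. Treated seedlings stood 2 to 18 cm tall, at the 1- to 4-leaf stage.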

[16] = tested on: oat, wild (wild oat, Avena fatua); experiment: Test C greenhouse herbicide test, postemergence
Procedure, shortened: as §3

[17] = Postemergence, 31 g ai/ha, 0 to 100 scale (0 no effect, 100 complete control)
[18] = Postemergence, 125 g ai/ha, scale 0 to 100, 0 is no effect, 100 is complete control
[19] = Postemergence, 250 g ai/ha, scale 0 to 100, 0 no effect, 100 complete control, 13 to 15 d
[20] = Preemergence, 31 g ai/ha, scale 0 to 100, 0 is no effect, 100 is complete control
[21] = Preemergence, 62 g ai/ha, scale 0 to 100, 0 is no effect, 100 is complete control
[22] = Preemergence, 125 g ai/ha, scale 0 to 100, 0 is no effect, 100 is complete control
[23] = Preemergence, 250 g ai/ha, scale 0 to 100 (0 no effect, 100 complete control)
[24] = postemergence, 62 g ai/ha, scale 0 to 100, 0 no effect, 100 complete control

COc1nn(C)c(=O)c(-c2c(C)ccc3ccccc23)c1OC(=O)OC(C)C [Compound 36]
50: Kochia plant response rating [15, 17] | Oat, Wild plant response rating [16, 17]
65: Plant response rating, Barnyardgrass [1, 22] | Crabgrass, Large plant response rating [4, 23] | Plant response rating, Oat, Wild [16, 18]
40: Plant response rating, Barnyardgrass [1, 19]
80: Plant response rating, Foxtail, Giant [5, 19] | Plant response rating, Lambsquarters [7, 21] | Lambsquarters plant response rating [7, 23] | Plant response rating, Morningglory [8, 20] | Plant response rating, Morningglory [8, 21] | Plant response rating, Ryegrass, Italian [11, 19]
95: Morningglory plant response rating [8, 23] | Plant response rating, Pigweed [9, 18] | Plant response rating, Ragweed [10, 18] | Plant response rating, Ragweed [10, 19] | Plant response rating, Ragweed [10, 22] | Ragweed plant response rating [10, 23] | Plant response rating, Waterhemp [13, 18] | Waterhemp plant response rating [13, 24]
98: Plant response rating, Lambsquarters [7, 18] | Lambsquarters plant response rating [7, 24] | Plant response rating, Morningglory [8, 18] | Morningglory plant response rating [8, 24] | Plant response rating, Waterhemp [13, 19]
90: Lambsquarters plant response rating [7, 17] | Morningglory plant response rating [8, 17] | Plant response rating, Morningglory [8, 22] | Plant response rating, Pigweed [9, 20] | Ragweed plant response rating [10, 17] | Plant response rating, Ragweed [10, 21] | Ragweed plant response rating [10, 24] | Plant response rating, Kochia [15, 19]
55: Foxtail, Giant plant response rating [5, 24] | Ryegrass, Italian plant response rating [11, 17] | Plant response rating, Kochia [15, 18] | Kochia plant response rating [15, 24]
30: Plant response rating, Blackgrass [2, 21] | Blackgrass plant response rating [2, 23] | Crabgrass, Large plant response rating [4, 24] | Foxtail, Giant plant response rating [5, 17] | Plant response rating, Ryegrass, Italian [11, 20] | Plant response rating, Ryegrass, Italian [11, 21] | Plant response rating, Soybean [12, 22]
75: Plant response rating, Foxtail, Giant [5, 20] | Plant response rating, Foxtail, Giant [5, 21]
100: Plant response rating, Lambsquarters [7, 19] | Plant response rating, Morningglory [8, 19] | Plant response rating, Pigweed [9, 19] | Plant response rating, Pigweed [9, 21] | Plant response rating, Pigweed [9, 22] | Pigweed plant response rating [9, 23] | Plant response rating, Soybean [12, 20] | Plant response rating, Waterhemp [13, 20] | Plant response rating, Waterhemp [13, 21] | Plant response rating, Waterhemp [13, 22] | Waterhemp plant response rating [13, 23]
10: Plant response rating, Barnyardgrass [1, 20]
15: Barnyardgrass plant response rating [1, 17] | Plant response rating, Soybean [12, 19]
85: Plant response rating, Foxtail, Giant [5, 22] | Foxtail, Giant plant response rating [5, 23] | Plant response rating, Lambsquarters [7, 22] | Pigweed plant response rating [9, 24] | Plant response rating, Ragweed [10, 20] | Ryegrass, Italian plant response rating [11, 23] | Waterhemp plant response rating [13, 17] | Plant response rating, Oat, Wild [16, 19]
25: Plant response rating, Barnyardgrass [1, 21] | Barnyardgrass plant response rating [1, 24] | Crabgrass, Large plant response rating [4, 17] | Plant response rating, Crabgrass, Large [4, 18]
70: Barnyardgrass plant response rating [1, 23] | Plant response rating, Crabgrass, Large [4, 20] | Plant response rating, Foxtail, Giant [5, 18] | Plant response rating, Lambsquarters [7, 20] | Pigweed plant response rating [9, 17]
60: Plant response rating, Ryegrass, Italian [11, 18] | Ryegrass, Italian plant response rating [11, 24] | Oat, Wild plant response rating [16, 24]
5: Blackgrass plant response rating [2, 17] | Plant response rating, Blackgrass [2, 18] | Blackgrass plant response rating [2, 24] | Plant response rating, Corn [3, 18] | Plant response rating, Corn [3, 19] | Plant response rating, Johnsongrass [6, 18] | Plant response rating, Johnsongrass [6, 19] | Plant response rating, Johnsongrass [6, 21] | Plant response rating, Johnsongrass [6, 22] | Johnsongrass plant response rating [6, 23] | Johnsongrass plant response rating [6, 24] | Plant response rating, Soybean [12, 18] | Plant response rating, Wheat [14, 19]
0: Plant response rating, Blackgrass [2, 20] | Corn plant response rating [3, 17] | Plant response rating, Corn [3, 20] | Plant response rating, Corn [3, 21] | Plant response rating, Corn [3, 22] | Corn plant response rating [3, 23] | Corn plant response rating [3, 24] | Johnsongrass plant response rating [6, 17] | Plant response rating, Johnsongrass [6, 20] | Soybean plant response rating [12, 17] | Plant response rating, Soybean [12, 21] | Soybean plant response rating [12, 24] | Wheat plant response rating [14, 17] | Plant response rating, Wheat [14, 18] | Plant response rating, Wheat [14, 20] | Plant response rating, Wheat [14, 21] | Plant response rating, Wheat [14, 22] | Wheat plant response rating [14, 23] | Wheat plant response rating [14, 24]
35: Plant response rating, Barnyardgrass [1, 18] | Plant response rating, Crabgrass, Large [4, 19] | Plant response rating, Ryegrass, Italian [11, 22]
20: Plant response rating, Blackgrass [2, 19] | Plant response rating, Blackgrass [2, 22] | Plant response rating, Crabgrass, Large [4, 21] | Plant response rating, Crabgrass, Large [4, 22] | Soybean plant response rating [12, 23]
